Data from US8765941B2 (Kino Pharma, Inc., priority 2008, dated 2014).
Read-outs that look alike come from different tables or passages of the source.

What was measured:
HCV RNA (NS5A) = assay: Effects on replication and stability of HCV RNA (RT-PCR) in LuHCV cells; assay type: cell-based, hepatitis C virus (HCV); conditions: 20 μM, 14 hours and 60 hours
Protocol: LuHCV cells were plated onto 10-cm dishes at 1×10^6 cells/dish and then incubated overnight or longer. Subsequently, Compound 5 dissolved in DMSO was added at a final concentration of 20 μM. Cells were further gently cultured under culture conditions of 37° C. and 5% CO2. DMSO alone was added to a control dish. At 14 hours and 60 hours after addition of Compound 5, cells were collected and then total RNA was extracted using Sepasol-RNA (NACALAI TESQUE, INC.). cDNA was synthesized using SuperScript II reverse transcriptase (Invitrogen) and oligo-dTprimer (Promega) or random primers (Invitrogen Corporation). PCR was performed using the thus synthesized cDNA as a template, NS5A-specific primers (5′-[…]-3′ (SEQ ID NO: 1) and 5′-[…]-3′ (SEQ ID NO: 2)), GAPDH primers (5′-[…]-3′ (SEQ ID NO: 3) and 5′-[…]-3′ (SEQ ID NO: 4)), and PrimeSTAR HS DNA polymerase (Takara Bio Inc.). After DNA amplification reaction, agarose gel electrophoresis and ethidium bromide staining were performed. The expression level of each gene was evaluated using a UV transilluminator.

LuHCV cells [1] = assay: Effects on the growth of LuHCV cells (hemocytometer count); assay type: cell-based, human; conditions: 20 μM, 0, 6, 12, 24, 36 and 48 hours
Protocol: LuHCV cells were plated onto a 6-well plate at 5×10^4 cells/1 mL/well and then incubated overnight. […] The final concentration of Compound 5 was 20 μM. […] After addition of Compound 5, cells were collected from 3 wells at 0, 6, 12, 24, 36, and 48 hours later, the number of viable cells per well was measured using a hemocytometer, and then the average value was calculated. Wells to which only DMSO had been added were used as control wells.

influenza virus = conditions: for cell death due to influenza virus infection (result in words): 5 and 10 μM, 48 hours, MDCK cells
[2] = system: intracellular HCV protein (NS3-NS4-NS5A-NS5B); assay: HCV viral protein expression assay using LuHCV cells (luciferase activity); conditions: for luciferase activity (result in words): 0, 10 and 20 μM; for luciferase activity (result in words) / decrease in luminescence intensity compared with the control: 48 hours, LuHCV cells; for decrease in luminescence intensity compared with the control: 10 μM; for activity at 10 µM / activity at 20 µM: Hepatitis C virus, 48 h, read-out: luc activity (% control)
Protocol: As an HCV viral protein expression assay, screening was performed for compounds having anti-HCV activity using human hepatocytes with which the replication and expression of the intracellular HCV protein (NS3-NS4-NS5A-NS5B) can be evaluated through determination of luciferase activity (hereinafter, referred to as LuHCV).
LuHCV cells were plated onto 96-well plates at 5×10^3 cells/50 μL/well and then incubated overnight. Test compounds were each dissolved in dimethyl sulfoxide (DMSO) and dilution series were prepared using DMSO, if necessary. On the next day of plating of LuHCV cells, a medium containing a test compound with a concentration twice the final test concentration was added at 50 μL/well. Cells were gently cultured under culture conditions of 48 hours, 37° C., and 5% CO2 (the final concentrations of the test compounds: 0, 10, and 20 μM). At this time, analysis was made using 3 test wells for each test compound and for each concentration.
Culture medium was removed after 48 hours. Glo lysis buffer (100 μL) (Promega) was added to each well and then cells were disrupted, so that a cell extract was obtained. With the use of 50 μL of the thus obtained cell extract, 50 μL of a Bright-Glo™ Luciferase Assay System (Promega) reagent was added. Luciferase activity in the extract was determined by measuring luminescence intensity for one second using a measuring device ARVO (PerkinElmer Co., Ltd.).
Based on the thus obtained numerical values of luminescence intensity, an average value for each test compound at each concentration was calculated. The luminescence intensity percentage for each test compound was calculated based on a luminescence intensity for DMSO (used as a control for test substances) as 100%.
Culture medium was removed after 48 hours. Glo Lysis buffer (100 μL) (Promega) was added to each well and then cells were disrupted, so that a cell extract was obtained. With the use of 50 μL of the thus obtained cell extract, 50 μL of a Bright-Glo™ Luciferase Assay System (Promega) reagent was added. Luciferase activity in the extract was determined by measuring luminescence intensity for one second using a measuring device ARVO (PerkinElmer Co., Ltd.).
Based on the thus obtained numerical values of luminescence intensity, an average value for each test compound at each concentration was calculated. The luminescence intensity percentage for each test compound was calculated based on a luminescence intensity of DMSO (used as a control for test substances) as 100%.

HCV-NS5A protein = assay: HCV protein expression-suppressing activity by Western blotting in LuHCV cells; assay type: cell-based, hepatitis C virus (HCV); conditions: 20 μM, 14 hours and 60 hours
Protocol: LuHCV cells were plated onto 10-cm dishes at 1×10^6 cells/dish and then incubated overnight or longer. Subsequently, Compound 5 dissolved in DMSO was added at a final concentration of 20 μM. Cells were further gently cultured under culture conditions of 37° C. and 5% CO2. DMSO alone was added to a control dish. At 14 hours and 60 hours after addition of Compound 5, cells were collected. Cells were lysed using a cell lysis solution (25 mM NaPO4 (pH 7.5), 150 mM NaCl, 1% Triton X-100, 1 mM EDTA, 20% glycerol, and protease inhibitor cocktail (Roche Diagnostics)), so that cell extracts were obtained. With the use of the thus obtained cell extracts (10 μg each), expression analysis was performed by Western blotting for an HCV-NS5A protein (an antibody was purchased from Virogen) and β-actin (an antibody was purchased from Sigma).

[3] = Toxicity test by repeated in vivo administration; design: species or system mice (Cr1j/CD1 (ICR) mice, male); conditions: oral
Protocol: A conditioning period of one week (day-7 to day-1) was provided for mice (Cr1j/CD1 (ICR) mice, male, 5-week-old), and then the mice were grouped based on the mean body weight on the day before the initiation of the test. Also, the dose of Compound 5 was calculated based on the mean body weight (day-1). There were 2 groups to which Compound 5 was administered: a placebo-administered group (n=6) to which a placebo was administered and a Compound 5-administered group (n=6) to which Compound 5 was administered. On the days of administration (day 00 to day 07), the test compound formulated using 0.5% carboxymethyl cellulose was administered via oral administration for 7 days in a row. Symptoms were observed during the administration period.
During the test period, the body weight of each mouse was weighed on day −7, day −3, day −1, day 4, and day 7.

LuHCV cells [4] = assay: Evaluation of cell growth suppression using LuHCV cells (percentage of viable cells, reagent SF); assay type: cell-based, human; conditions: 48 hours, DMSO = 100%
Protocol: At this time, as a background absorbance, measurement was also performed for wells containing test compounds (or DMSO used as a control), but containing no cells. Each of the thus obtained background numerical values was deducted from the absorbance of a cell-containing well (measured for the same compound at the same concentration). The resulting value was designated as actual measurement of number of viable cells containing no background. […] With an average value measured for DMSO used as a control test substance designated as 100%, the percentage of the number of viable cells for each test compound was calculated.
At this time, as a background absorbance, measurement was also performed for wells containing test compounds (or containing DMSO used as a control), but containing no cells. Each of the thus obtained background numerical values was deducted from the absorbance of a cell-containing well (measured for the same compound at the same concentration). The resulting value was designated as actual measurement of number of viable cells containing no background. […] By using a value measured upon addition of DMSO used as a control test substance designated as 100%, the percentage of the number of viable cells for each test compound was calculated. Table 1-2 and FIG. 2B show the percentage of the number of viable cells (cell viability (% control)) for each test compound at each concentration.

Structure (SMILES) | viability (% control) (LuHCV cells [4]; 10 μM) | viability (% control) (LuHCV cells [4]; 20 μM) | activity at 10 µM [2] | activity at 20 µM [2] | other results
O=C(NC(=S)Nc1cc(C(F)(F)F)ccc1N1CCCCCCC1)c1cccnc1 [Compound 5, N-nicotinoyl-N′-[2-(azacyclooctan-1-yl)-5-(trifluoromethyl)phenyl]thiourea] |  |  |  |  | amount of NS5A and GAPDH RNA (RT-PCR) (HCV RNA (NS5A)): no quantitative change was observed; number of viable cells at each time point versus DMSO control (LuHCV cells [1]): Almost no differences were observed; viability (% control) (influenza virus; 5 µM): 41.8 ± 2.2 % control; viability (% control) (influenza virus; 10 µM): 63.1 ± 0.9 % control; cell death due to influenza virus infection (result in words) (influenza virus): cell death was decreased; luciferase activity (result in words) [2]: Decreases in luciferase activity; decrease in luminescence intensity compared with the control [2]: about 50%; expression level of NS5A (Western blotting) (HCV-NS5A protein): a decrease in the expression level of NS5A was observed; expression level of β-actin (Western blotting) (HCV-NS5A protein): no change was observed; dead mice during the administration period ([3]; 1000 mg/kg/day, 7 days): no dead mice were observed; level at which no adverse effect is observed ([3]; 7 days repeated administration, mice): ≥ 1000 mg/kg
O=C(NC(=S)Nc1cc(C(F)(F)F)ccc1N1CCCCCCCC1)c1cccnc1 [Compound 6, N-nicotinoyl-N′-[2-(azacyclononan-1-yl)-5-(trifluoromethyl)phenyl]thiourea] |  |  |  |  | viability (% control) (influenza virus; 5 µM): 42.1 ± 1.5 % control; viability (% control) (influenza virus; 10 µM): 80.9 ± 3.2 % control; cell death due to influenza virus infection (result in words) (influenza virus): cell death was decreased; luciferase activity (result in words) [2]: Decreases in luciferase activity; decrease in luminescence intensity compared with the control [2]: about 50%
Cc1ccc(C(=O)NC(=S)Nc2cc(C(F)(F)F)ccc2N2CCCCCCC2)cc1 [Compound 11] | 89.95 % control | 89.20 % control | 35.8% | 29.8% | 
COc1ccc(C(=O)NC(=S)Nc2cc(C(F)(F)F)ccc2N2CCCCCCC2)cc1 [Compound 12, N-(4-methoxybenzoyl)-N′-[2-(azacyclooctan-1-yl)-5-(trifluoromethyl)phenyl]thiourea] | 94.69 % control | 88.78 % control | 32.8% | 28.6% | 
O=C(NC(=S)Nc1cc(C(F)(F)F)ccc1N1CCCCCCC1)c1ccc(F)cc1 [Compound 13, N-(4-fluorobenzoyl)-N′-[2-(azacyclooctan-1-yl)-5-(trifluoromethyl)phenyl]thiourea] | 101.56 % control | 104.05 % control | 34.1% | 28.5% | 
O=C(NC(=S)Nc1cc(C(F)(F)F)ccc1N1CCCCCCC1)c1ccccc1 [Compound 14, N-benzoyl-N′-[2-(azacyclooctan-1-yl)-5-(trifluoromethyl)phenyl]thiourea] | 103.81 % control | 103.76 % control | 30.3% | 14.8% | viability (% control) (influenza virus; 5 µM): 71.6 ± 2.2 % control; viability (% control) (influenza virus; 10 µM): 100.0 ± 2.0 % control; cell death due to influenza virus infection (result in words) (influenza virus): cell death was decreased
COc1ccccc1C(=O)NC(=S)Nc1cc(C(F)(F)F)ccc1N1CCCCCCC1 [Compound 15, N-(2-methoxybenzoyl)-N′-[2-(azacyclooctan-1-yl)-5-(trifluoromethyl)phenyl]thiourea] | 107.86 % control | 107.33 % control | 45.8% | 37.6% | 
O=C(NC(=S)Nc1cc(C(F)(F)F)ccc1F)c1cccnc1 [Compound 16, N-nicotinoyl-N′-[2-fluoro-5-(trifluoro-methyl)phenyl]thiourea] | 85.21 % control | 79.86 % control | 58.1% | 48.9% | 
O=C(NC(=S)Nc1cc(C(F)(F)F)ccc1N1CCCCCCC1)c1ccoc1 [Compound 17] | 112.89 % control | 108.81 % control | 26.1% | 17.6% | 
O=C(Nc1cc(C(F)(F)F)ccc1N1CCCCCCCC1)c1ccncc1 [Compound 20, W[2-(azacyclononan-1-yl)-5-(trifluoromethyl)-phenyl]isonicotinamide] | 111.50 % control | 105.35 % control | 48.3% | 22.7% | 
O=C(NC(=S)Nc1cc(C(F)(F)F)ccc1N1CCCCCCCC1)c1ccccc1 [Compound 24, 1-benzoyl-3-[2-(azacyclononan-1-yl)-5-(trifluoro-methyl)phenyl]thiourea] | 108.20 % control | 110.15 % control | 56.4% | 39.4% | 
